Results reported in a melting point compilation (Tetko et al.; mined from patent text by program, amines drawn as free bases though some values may be those of a salt).

**Q.** For `Cc1cc(COc2ccc(C(=O)NC[C@](O)(C(N)=O)N3CCN(Cc4ccccc4)CC3)cc2)c2ccccc2n1`, which melting point is on record?
**A.** 169 °C

**Q.** For `CCCN(C(=O)n1ccnc1)c1ccccc1Cl`, which melting point is on record?
**A.** 75.5 to 76.5 °C

**Q.** Which melting point does the source give for `CC(=O)N[C@H]1C=C[C@@H](CO)C1` here?
**A.** 77 to 80 °C

**Q.** For `N#Cc1ccc2oc3c(c2c1)CCC(C(=O)O)C3` (configuration not stated), which melting point is on record?
**A.** 185 to 190 °C

**Q.** With `CC(C)CC(NC(=O)c1cc(F)ccc1SSc1ccc(F)cc1C(=O)NC(CC(C)C)C(=O)O)C(=O)O` (configuration not stated) as the compound, how does the melting point read?
**A.** 246 to 247 °C

**Q.** For `CCOC(=O)c1ncn2c1CN=C(NCC(OC)OC)c1sccc1-2`, which melting point is on record?
**A.** 134 °C

**Q.** Which melting point does the source give for `COC(=O)c1cccc(Nc2ccc(OC)cc2)c1` here?
**A.** 120 °C

**Q.** For `O=c1c2cc(F)c(F)cc2n(-c2cccc(F)c2)c(=O)n1OCc1ccccc1`, which melting point is on record?
**A.** 179 to 181 °C

**Q.** Which melting point does the source give for `N#Cc1cccc(C=Cc2ccc(Cl)c(Cl)c2)n1` here?
**A.** 124 to 125 °C

**Q.** For `Cc1ccc(C2C3=C(CC(C)(C)CC3=O)NC3=C2C(=O)CC(C)(C)C3)cc1[N+](=O)[O-]`, which melting point is on record?
**A.** > 300 °C

**Q.** Which melting point does the source give for `CS(=O)(=O)c1ccc(Oc2ccc(Cl)c(Cl)c2)c(Cl)c1` here?
**A.** 102 to 104 °C

**Q.** For `O=C1CCC(c2ccc(OCC3CO3)c3ccccc23)=NN1` (configuration not stated), which melting point is on record?
**A.** 151 to 155 °C

**Q.** Which melting point does the source give for `Cc1c[nH]c(C)c1CCC(=O)O` here?
**A.** 134 to 136 °C

**Q.** With `CCc1ccc2c(c1)c(-c1ccccc1Cl)c(NC(=O)Nc1ccc(F)cc1F)c(=O)n2C` as the compound, how does the melting point read?
**A.** 192 to 195 °C

**Q.** For `Cc1cccc(C(=O)CC(=O)C2CCCC2)c1O`, which melting point is on record?
**A.** 74 to 75 °C

**Q.** Which melting point does the source give for `O=C(O)C(O)c1ccc(Cc2ccccc2)s1` (configuration not stated) here?
**A.** 81 to 82 °C

**Q.** With `COC(=O)c1c(-c2ccccc2)nn2c1-c1ccccc1CC2` as the compound, how does the melting point read?
**A.** 112 to 113 °C

**Q.** With `CCc1nn(C2CCCC2)c2cc(C(=O)NCCC(=O)NOCc3ccccc3)ccc12` as the compound, how does the melting point read?
**A.** 134 to 136 °C

**Q.** For `CC(C)(C)OC(=O)Nc1ccc(OCc2ccccc2)c(C(=O)O)c1`, which melting point is on record?
**A.** 136 to 139 °C

**Q.** For `O=C1NC(=O)c2c(Sc3ccc(Cl)cc3)c(Sc3ccc(Cl)cc3)c(Sc3ccc(Cl)cc3)c(Br)c21`, which melting point is on record?
**A.** 164 to 169 °C

**Q.** Which melting point does the source give for `COC(=O)C(C)(C)c1ccc(C(=O)Nc2cn3cc(I)ccc3n2)cc1` here?
**A.** 234 to 235 °C

**Q.** With `Cc1oc(-c2ccccc2)nc1CCOc1ccc(C[C@@H](C(=O)O)N2CCN(c3cccc(Cl)c3)CC2)cc1` as the compound, how does the melting point read?
**A.** 138 to 139 °C

**Q.** For `COc1cc(Nc2ncc(-c3cccc([N+](=O)[O-])c3)o2)ccc1-c1cnco1`, which melting point is on record?
**A.** 279 to 281 °C

**Q.** Which melting point does the source give for `O=c1[nH]c2ccc(Cl)cc2c(=O)n1N1CCOCC1` here?
**A.** 335 °C

**Q.** Which melting point does the source give for `CN1CC(CO)Cc2ccc(NC(=O)/C=C/c3ccc(C(F)(F)F)cc3)cc21` (configuration not stated) here?
**A.** 167 to 169 °C

**Q.** With `COc1cc2ncn(CCO)c(=O)c2cc1OC` as the compound, how does the melting point read?
**A.** 130 °C

**Q.** Which melting point does the source give for `O=S(=O)(c1ccccc1)N1CCCC1c1ccccc1` (racemic) here?
**A.** 116 °C

**Q.** Which melting point does the source give for `ClCc1ccc2c(c1)Cc1cccnc1O2` here?
**A.** 172 to 174 °C

**Q.** For `CS(=O)(=O)c1ccc(-c2sc(-c3ccc(F)c(Cl)c3)nc2-c2ccc(F)cc2)cc1`, which melting point is on record?
**A.** 165 to 167 °C

**Q.** For `Cc1[nH]c(=O)c(C(F)(F)C(F)(F)F)c2c1CC(c1ccncc1)CC2` (configuration not stated), which melting point is on record?
**A.** 265 to 300 °C

**Q.** With `CCOC(=O)c1nc(C)n2c1CN=C(c1ccccn1)c1cc(Br)ccc1-2` as the compound, how does the melting point read?
**A.** 240 to 243 °C

**Q.** Which melting point does the source give for `O=Cc1ccc(C=CC(=O)N2CCc3c([nH]c4ccccc34)C2c2ccc3c(c2)OCO3)cc1` (configuration not stated) here?
**A.** 208 °C

**Q.** For `COc1cc2c(c(C)c1C)C(=O)CC2c1c[nH]cn1` (configuration not stated), which melting point is on record?
**A.** 258 to 261 °C

**Q.** With `COC(=O)c1ccc(C(=O)CC(=O)/C=C/c2ccc(O)c(OC)c2)cc1` as the compound, how does the melting point read?
**A.** 187 to 189 °C

**Q.** Which melting point does the source give for `CCOC(=O)C=C[C@H](Cc1ccc(-c2ccccc2)cc1)NC(=O)OC(C)(C)C` here?
**A.** 91 to 94 °C

**Q.** For `O=C(O)c1cc(F)cc(-c2cccc3cc(Cc4ccc(F)c(Cl)c4)sc23)c1`, which melting point is on record?
**A.** 135 to 137 °C

**Q.** For `OCC1OC(n2cnc3c(NCc4ccccc4)nc(Cl)nc32)CC1O` (configuration not stated), which melting point is on record?
**A.** 147 °C

**Q.** For `CC(C)(C)OC(=O)NOCC(=O)NNC(=O)c1cc(S(=O)(=O)O)cc(OCc2ccccc2)c1OCc1ccccc1`, which melting point is on record?
**A.** 103 to 105 °C

**Q.** For `Cc1cc(=O)c(C(=O)NS(C)(=O)=O)nn1-c1ccc(Cl)cc1`, which melting point is on record?
**A.** 225 to 227 °C

**Q.** Which melting point does the source give for `CN1C(=O)C2CCCN2Cc2ccccc21` (configuration not stated) here?
**A.** 120 to 122 °C

**Q.** With `C#CCN(c1ccc(C(=O)NC(CCCCCC(=O)O)C(=O)O)cc1)C1CCc2cc3nc(C)[nH]c(=O)c3cc21` (configuration not stated) as the compound, how does the melting point read?
**A.** 186 °C

**Q.** With `COCOc1c(NC(=O)NCc2cccnc2)cc(OC)cc1C(C)(C)C` as the compound, how does the melting point read?
**A.** 108 to 109 °C

**Q.** With `NCCN1CCC(Nc2nc3ccccc3n2Cc2ccnc3ccccc23)CC1` as the compound, how does the melting point read?
**A.** 196 °C

**Q.** With `N#Cc1cccc(CN2C(=O)c3ccccc3C2=O)n1` as the compound, how does the melting point read?
**A.** 205 °C

**Q.** Which melting point does the source give for `COc1ccc(-c2oncc2CCC(=O)O)cc1OC` here?
**A.** 169 to 170 °C

**Q.** For `CCCc1c(OCCCCCCc2ccc3cc(OC)c(OC)cc3c2)ccc(C(=O)O)c1O`, which melting point is on record?
**A.** 102 to 104 °C

**Q.** For `COc1ccc(S(=O)(=O)n2ccc3ccnc(-c4ccc([N+](=O)[O-])cc4)c32)cc1`, which melting point is on record?
**A.** 178 to 179 °C
